Converted amounts (≈) assume the structure as drawn.
Columns and labels:
[1] = tested on: pial artery; assay type: in vivo, piglets
[2] = tested on: middle cerebral artery occlusion (MCAO); conditions: mouse, in vivo
[3] = tested on: basilar artery; test: Subarachnoid hemorrhage model (Example 8); assay type: in vivo
[4] = tested on: pial artery; conditions: 10%-16% changes compared to the baseline
[5] = Solubility in other solvents; conditions: thermodynamic from solid
[6] = Solubility in cyclodextrin solutions (HPLC)
[7] = SB203580 10 μM topical 30 min before salvinorin A
[8] = SP600125 1 μM topical 30 min before salvinorin A
[9] = U0126 1 mg/kg i.v. 30 min before salvinorin A
[10] = pretreatment 10 μg/kg i.v. 30 min before H/I

With `COC(=O)[C@@H]1C[C@H](OC(C)=O)C(=O)[C@H]2[C@@]1(C)CC[C@H]1C(=O)O[C@H](c3ccoc3)C[C@]21C` [Salvinorin A] the “preserved response to hypercapnia with SB203580” value [1, 7] was “No significant change in the preservative effects”, the “preserved response to hypotension with SB203580” value [1, 7] was “no significantly changes” and the “preserved response to hypercapnia with SP600125” value [1, 8] was “No significant change in the preservative effects”. The “preserved response to hypotension with SP600125” value [1, 8] was “no significantly changes”, the “preserved response to hypercapnia with U0126” value [1, 9] was “abolished by U0126” and the “preserved response to hypotension with U0126” value [1, 9] was “abolished by U0126”. For the same compound, the “pial artery dilation response to hypercapnia after hypoxia/ischemia” value [1, 10] was “preserved the dilation response of pial artery to hypercapnia”, the “pial artery dilation response to hypotension after hypoxia/ischemia” value [1, 10] was “preserved the dilation response of pial artery to hypotension” and the “blood brain barrier disruption and vascular leakage (Evans blue extravasation)” value [2] was “reduced the disruption and leakage”. The “infarct size (TTC stains)” value [2] was “dose-dependent reduction”, the “motor function, grip strength score” value [2] was “dose-dependent improvements in motor function” and the neurobehavior [2] was “dose-dependent improvements”. The overall motor function [2] was “improves overall motor function”, the “protective effect on leakage with norbinaltorphimine” value [2] was “inhibited the protective effect of salvinorin A” and the neurological score ([3]; 24 hour after SAH) was “no significant effect on the neurological score”. For the same compound, the “diameter of the basilar artery” value ([3]; 24 hours after SAH, H&E) was “increased the diameter”, the “thickness of the wall of the basilar artery” value ([3]; 24 hours after SAH, H&E) was “decreased the thickness of the wall” and the “concentration required to effectively dilate pial arteries” value [4] was 10 nM. It also gave a solubility ([5]; 1,2-propanediol, organic solvent or mixture) of 59 µg/mL (≈ 136 µM), a solubility ([5]; 1.25% Polysorbate 80 and […] Solutol HS15, aqueous with cosolvent or surfactant or cyclodextrin) of 25 µg/mL (≈ 57.8 µM) and a solubility ([5]; 2-propanol, organic solvent or mixture) of 22 µg/mL (≈ 50.9 µM). For the same compound, the solubility ([5]; 5% Solutol HS15, aqueous with cosolvent or surfactant or cyclodextrin) was 26 µg/mL (≈ 60.1 µM), the solubility ([5]; 5% Vitamin E TPGS, aqueous with cosolvent or surfactant or cyclodextrin) was 45 µg/mL (≈ 104 µM) and the solubility ([5]; 10% Tetraglycol, aqueous with cosolvent or surfactant or cyclodextrin) was less than 2 µg/mL. For the same compound, the solubility ([5]; 10% bile salts, aqueous with cosolvent or surfactant or cyclodextrin) was less than 2 µg/mL, the solubility ([5]; DMSO, organic solvent or mixture) was greater than 1000 µg/mL and the solubility ([5]; N,N-dimethylacetamide, organic solvent or mixture) was greater than 5000 µg/mL. The solubility ([5]; N-methylpyrolidinone, organic solvent or mixture) was greater than 10000 µg/mL, the solubility ([5]; […] Polysorbate 80, aqueous with cosolvent or surfactant or cyclodextrin) was less than 2 µg/mL and the solubility ([5]; ethanol, organic solvent or mixture) was greater than 1000 µg/mL. The solubility ([5]; glyceryl monocaprylate, oil or lipid) was less than 2 µg/mL, the solubility ([5]; water) was less than 2 µg/mL and the solubility ([6]; 20% 2-hydroxypropyl-β-cyclodextrin (HPBCD) in water, aqueous with cosolvent or surfactant or cyclodextrin, thermodynamic from solid, Concentration (solubility), 20% HPBCD, mean ± SD) was 122.5 ± 0.6 µg/mL (≈ 283 µM). The solubility ([6]; 20% 2-hydroxypropyl-β-cyclodextrin (HPBCD) in water, aqueous with cosolvent or surfactant or cyclodextrin, thermodynamic from solid, maximum concentration (solubility), HPBCD) was greater than 100 µg/mL, the solubility ([6]; 20% 2-hydroxypropyl-β-cyclodextrin (HPBCD) in water, aqueous with cosolvent or surfactant or cyclodextrin, thermodynamic from solid, solubility, 20% HPBCD) was 122.5 ± 0.6 µg/mL (≈ 283 µM) and the solubility ([6]; 20% 2-hydroxypropyl-γ-cyclodextrin (HPGCD) in water, aqueous with cosolvent or surfactant or cyclodextrin, thermodynamic from solid, Concentration (solubility), 20% HPGCD, mean ± SD) was 52.6 ± 0.9 µg/mL (≈ 122 µM). It also gave a solubility ([6]; 20% 2-hydroxypropyl-γ-cyclodextrin (HPGCD) in water, aqueous with cosolvent or surfactant or cyclodextrin, thermodynamic from solid, solubility, 20% HPGCD) of 52.6 ± 0.9 µg/mL (≈ 122 µM), a solubility ([6]; 20% α-cyclodextrin sulfated sodium salt in water, aqueous with cosolvent or surfactant or cyclodextrin, thermodynamic from solid, Concentration (solubility), 20% α-Cyclodextrin sulfated sodium salt, mean ± SD) of 1 ± 0.1 µg/mL and a solubility ([6]; 20% β-cyclodextrin sulfated sodium salt in water, aqueous with cosolvent or surfactant or cyclodextrin, thermodynamic from solid, Concentration (solubility), 20% β-Cyclodextrin sulfated sodium salt, mean ± SD) of 1.5 ± 0.1 µg/mL. The solubility ([6]; water and α- or β-cyclodextrin sulfated sodium salt) was “only minimally soluble” and the solubility ([6]; water, thermodynamic from solid, Concentration (solubility), 100% water, mean ± SD) was 1 ± 0.1 µg/mL (≈ 2.31 µM).

Reference: patent US11000505B2 (priority 2010, dated 2021)
